Measured values as given in patent US10617662B2, “Autophagy activation-induced compound for improving skin inflammation for aging” (INCOSPHARM CORPORATION, priority 2017, dated 2020).

Assays:
[1] = test system: LC3 (light chain 3) protein; test: Western blot for LC3 protein, autophagy activation; assay type: cell-based, human; details: HaCaT cells; 20 uM dilution, 1 ml added to 1 ml medium; FIG. 1
Description: In order to analyze increased intracellular autophagy activation by treatment of Compound 8 of the present invention, a western blot analysis for LC3 (light chain 3) protein was performed.
As a specific experimental method, HaCaT, human epidermal keratinocytes were seeded in on a 6 well plate at a density of 3×10^5 cells, and cultured in DMEM (Dulbecco's Modified Eagle Media, Gibco BRL) in an incubator under 37° C. and 5% CO2 for 24 hours. Compound 8 of the present invention was dissolved in DMSO at a concentration of 10 mM to be a concentrate, and diluted with a medium to be at a concentration of 20 uM. Then in a state where 1 ml of medium was first in each well, 1 ml of each diluted solution was added thereto for treatment, and cultured for a certain period, and after completing the culture, the medium was removed, and then cells were disrupted with a SDS sample buffer, and each protein was separated by SDS-PAGE gel electrophoresis, and transferred to a PVDF (polyvinylidene fluoride) membrane. Thereafter, non-specific binding was eliminated using a blocking buffer, and an antibody against LC3 protein and a HRP-bound secondary antibody (anti-rabbit IgG HRP (sigma)) were reacted, and then an enhanced chemiluminescence (ECL) reaction using an ECL prime kit (Amersham Pharmacia) was carried out, thereby performing a ChemiDoc analysis.

[2] = test system: KLK7 (Kallikrein-related peptidase 7); test: RT-PCR of psoriasis-related gene KLK7; assay type: cell-based, human; details: HEKa cells, 20 uM, FIGS. 2 and 3
Description: (§1) A psoriasis-related genes were selected from the cDNA array result in which Compound 8 of the present invention was treated in HaCaT cells. In order to analyze whether Compound 8 has an effect on psoriasis alleviation, RT-PCR analysis for IL-36′ (interleukin 36 gamma), KLK7 (Kallikrein-related peptidase 7), OASL (2′-5′-Oligoadenylate Synthetase Like) and ALOX12B (Arachidonate 12-lipoxygenase, 12R type) which are very closely related to psoriasis was carried out. Further, KRT16 (Keratin 16), KRT6 (Keratin 6) and KRT1 (Keratin 1), known as psoriasis-related proliferation, differentiation markers were confirmed by a western blot analysis. As the specific experimental method, HEKa cells (Human Epidermal keratinocytes, adult), human-derived epidermal keratinocytes were seeded on a 24 well plate at a density of 1×10^5 cells, and cultured in an EpiLife medium (1× Human keratinocyte Growth supplement, 1× antibiotics) in an incubator under 37° C. and 5% CO2 for 24 hours. […]

IL-8 (interleukin 8) = test: ELISA for IL-8 in HEKa cells under inflammatory condition; assay type: cell-based, human; details: TNF-α/IFN-γ or IL-17A/IL-22 induced inflammatory condition, 10·M, FIGS. 5 to 7
Description: In order to analyze whether treatment of Compound 8 has an atopy alleviation effect, ELISA (enzyme-linked immunosorbent assay) for IL-6 (interleukin 6) and IL-8 (interleukin 8) which are very closely related to atopic inflammation and psoriasis was performed.
As the specific experimental method, HEKa cells (Human Epidermal keratinocytes, adult), human-derived epidermal keratinocytes were seeded on a 24 well plate at a density of 1×10^5 cells, and cultured in an EpiLife medium (1× Human keratinocyte Growth supplement, 1× antibiotics) in an incubator under 37° C. and 5% CO2 for 24 hours.
After culturing, while an inflammatory condition was induced by treatment with either TNF-α (Tumor necrosis factor-α)/IFN-γ (interferon-γ) or IL-17A (interleukin-17A)/IL-22 (interleukin-22) in each well, further treatment was performed with Compound 8 of the present invention at a concentration of 10·M, and then the cells were incubated for a certain period. After completing culturing, media were collected, and then ELISA for each IL-6 and IL-8 was carried out.

KRT6 (Keratin 6) = test: Western blot of proliferative marker KRT6; assay type: cell-based, human; details: FIG. 4
Description: as §1

[3] = test system: CXCL2 (Chemokine (C-X-C motif) ligand 2); test: Cytokine gene expression, CXCL2, TNFα/IFN-γ induced inflammatory condition; assay type: cell-based, human; details: FIG. 8
[4] = test system: psoriasis animal model induced by imiquimod 5% cream; test: Psoriasis animal model, ear thickness; assay type: in vivo, BALB/c mice; details: ears treated together with imiquimod; digital caliper; FIG. 18
Description: In order to confirm the psoriasis treatment effect by Compound 8 of the present invention, dorsal hair of 8-week-old BALB/c mice (female) was removed using hair removal cream (Veet®, Oxy Reckitt Benckiser, Cedex, France), and subsequently imiquimod 5% cream (Aldara®; 3M Pharmaceuticals, UK; 62.5 mg) was applied on the back and both ears of the mice twice in the morning and in the afternoon (Sensitization; Day 0). Then, after a barrier recovery period of 2 days, imiquimod 5% cream (62.5 mg/day) was applied repeatedly for 7 days (Induction stage; Day 2 -Day 8), thereby inducing the psoriasis animal model.
There was no treatment on the left ear of the untreated control group, and the right ear was treated with cream not containing imiquimod and ethanol. The left ear of the experimental groups was treated only with imiquimod and ethanol, whereas the right ear of the experimental groups was treated with either Compound 8 or Compound 8 cream of the present invention together with imiquimod, and such method is specifically shown in FIG. 12.
When the animals were slaughtered, the thickness of the central part of both ears was measured using a digital caliper (Digital caliper, Marathon Inc. Belleville, ON, Canada).

[5] = test system: OASL (2′-5′-Oligoadenylate Synthetase Like); test: RT-PCR of psoriasis-related gene OASL; assay type: cell-based, human; details: HEKa cells, 20 uM, FIGS. 2 and 3
Description: as §1

IL-20 (interleukin-20) = test: Cytokine gene expression, IL-20, TNFα/IFN-γ induced inflammatory condition; assay type: cell-based, human; details: FIG. 8

In the case of `CCCCCCCCCCCCCCCC(=O)NCCCC[C@H](NC(=O)[C@H](CCCCN(CC(=O)O)CC(=O)O)N(CC(=O)O)CC(=O)O)C(=O)O` [Compound 8], the “production of LC3-II” value [1] is reported as “increased”, the “expression level of KLK7 gene” value [2] is reported as “significantly decreased” and the “secretion of IL-8” value (IL-8 (interleukin 8)) is reported as “significantly reduced”. The “KRT6 (proliferative marker) level” value (KRT6 (Keratin 6)) was “reduced”, the “expression level of CXCL2” value [3] was “reduced” and the “thickness of the right (treated) ear compared with the left ear treated with 5% imiquimod and ethanol” value [4] was “significant thickness reduction”. The “expression level of OASL gene” value [5] was “significantly decreased” and the “expression level of IL-20” value (IL-20 (interleukin-20)) was “reduced”.
